Tests used:
[1] = biological target: T1, Peroxisome proliferator-activated receptor alpha (Rattus norvegicus, UniProt P37230); test: Agonist activity at rat PPARalpha in rat H4IIE cells assessed as gene induction; type: functional, cell-based
T1 sequence (P37230 whole entry): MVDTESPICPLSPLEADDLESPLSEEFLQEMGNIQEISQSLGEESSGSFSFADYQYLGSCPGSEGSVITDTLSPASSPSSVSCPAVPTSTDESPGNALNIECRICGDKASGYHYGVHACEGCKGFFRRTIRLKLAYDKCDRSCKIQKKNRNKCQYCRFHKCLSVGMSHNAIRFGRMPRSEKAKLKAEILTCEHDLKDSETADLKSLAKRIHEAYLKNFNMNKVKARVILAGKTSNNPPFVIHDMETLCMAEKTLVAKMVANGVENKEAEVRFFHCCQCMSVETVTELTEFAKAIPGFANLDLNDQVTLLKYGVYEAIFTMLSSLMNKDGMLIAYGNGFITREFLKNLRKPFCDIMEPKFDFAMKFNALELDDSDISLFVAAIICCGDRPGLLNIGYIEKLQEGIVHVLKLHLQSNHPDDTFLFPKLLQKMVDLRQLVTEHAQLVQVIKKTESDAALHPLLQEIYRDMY

[2] = Oral bioavailability in Sprague-Dawley rat at 30 mg/kg; type: ADME, organism-based; conditions: in vivo
[3] = Metabolic stability in human liver microsomes at 5 uM; type: ADME, Microsome
[4] = Half life at terminal phase in Sprague-Dawley rat at 30 mg/kg, po; type: ADME, organism-based; set-up: dose 30 mg/kg, route oral; conditions: in vivo, read-out: beta t1/2 (converted)
[5] = Total clearance in Sprague-Dawley rat at 3 mg/kg, iv or 30 mg/kg, po; type: ADME, organism-based; conditions: in vivo
[6] = Cmax in Sprague-Dawley rat at 3 mg/kg, iv or 30 mg/kg, po; type: ADME, organism-based; conditions: in vivo
[7] = AUC in Sprague-Dawley rat at 3 mg/kg, iv or 30 mg/kg, po; type: ADME, organism-based; conditions: plasma

Compound `CCCCCCCN(C(=O)Nc1ccc(C(C)C)cc1)C1Cc2ccc(SC(C)(C)C(=O)O)cc2C1` (configuration not stated) has an EC50 [1] of 229 nM.
With `CCCCCCN(C(=O)Nc1ccc(SC(F)(F)F)cc1)C1Cc2ccc(SC(C)(C)C(=O)O)cc2C1` (configuration not stated) the EC50 [1] was 249 nM.
Work on `CC(C)CN(C(=O)Nc1ccc(OC(F)(F)F)cc1)C1Cc2ccc(SC(C)(C)C(=O)O)cc2C1` (configuration not stated) yielded an EC50 [1] of 2340 nM.
`CCCCCCN(C(=O)Nc1ccc(C(C)C)cc1)C1Cc2ccc(SC(C)(C)C(=O)O)cc2C1` (configuration not stated) gave an EC50 [1] of 180 nM.
For `CCN(C(=O)Nc1ccc(OC(F)(F)F)cc1C)C1Cc2ccc(SC(C)(C)C(=O)O)cc2C1` (configuration not stated), the EC50 [1] was 598 nM.
In the case of `CC(C)(Sc1ccc2c(c1)CC(NC(=O)Nc1ccc(OC(F)(F)F)cc1)C2)C(=O)O` (configuration not stated), the EC50 [1] is reported as 96 nM.
Work on `CCCCCCCN(C(=O)Nc1ccc(OC)cc1)C1Cc2ccc(SC(C)(C)C(=O)O)cc2C1` (configuration not stated) yielded an EC50 [1] of 910 nM.
In the case of `CCCCCCN(C(=O)Nc1ccc(N(C)C)cc1)C1Cc2ccc(SC(C)(C)C(=O)O)cc2C1` (configuration not stated), the EC50 [1] is reported as 219 nM.
For `CN(C(=O)Nc1ccc(OC(F)(F)F)cc1)C1Cc2ccc(SC(C)(C)C(=O)O)cc2C1` (configuration not stated), the EC50 [1] was 2850 nM.
`CCCCCCCCN(C(=O)Nc1ccc(OC(F)(F)F)cc1)C1Cc2ccc(SC(C)(C)C(=O)O)cc2C1` (configuration not stated) showed an EC50 [1] of 1030 nM.
Work on `CCCCCCCN(C(=O)Nc1cccc(OC)c1)C1Cc2ccc(SC(C)(C)C(=O)O)cc2C1` (configuration not stated) yielded an EC50 [1] of 1110 nM.
For `CCN(C(=O)Nc1ccc(OC(F)(F)F)c(Cl)c1)C1Cc2ccc(SC(C)(C)C(=O)O)cc2C1` (configuration not stated), the EC50 [1] was > 3000 nM.
With `CCCCCCCN(C(=O)Nc1ccc(OC(F)(F)F)cc1)C1Cc2ccc(SC(C)(C)C(=O)O)cc2C1` (configuration not stated) the EC50 [1] was 294 nM.
In the case of `CC(C)N(C(=O)Nc1ccc(OC(F)(F)F)cc1)C1Cc2ccc(SC(C)(C)C(=O)O)cc2C1` (configuration not stated), the EC50 [1] is reported as > 5000 nM.
In the case of `CC(C)(Oc1ccc(C2CC2(Cl)Cl)cc1)C(=O)O` (configuration not stated) [CIPROFIBRATE], the EC50 [1] is reported as > 10000 nM.
In the case of `CCCCCCN(C(=O)Nc1ccc(OC(F)(F)F)cc1)C1Cc2ccc(SC(C)(C)C(=O)O)cc2C1` (configuration not stated), the EC50 [1] is reported as 166 nM.
`CCCCN(C(=O)Nc1ccc(C(C)C)cc1)C1Cc2ccc(SC(C)(C)C(=O)O)cc2C1` (configuration not stated) showed an EC50 [1] of 260 nM.
`CCCCCCCN(C(=O)Nc1ccccc1SC(F)(F)F)C1Cc2ccc(SC(C)(C)C(=O)O)cc2C1` (configuration not stated) showed an EC50 [1] of 1960 nM.
`CCCCCCCN(C(=O)Nc1ccccc1C(F)(F)F)C1Cc2ccc(SC(C)(C)C(=O)O)cc2C1` (configuration not stated) showed an EC50 [1] of 6390 nM.
For `CCN(C(=O)Nc1ccc(OC(F)(F)F)c(Br)c1)C1Cc2ccc(SC(C)(C)C(=O)O)cc2C1` (configuration not stated), the EC50 [1] was > 3000 nM.
For `CC(C)(Sc1ccc2c(c1)CC(N(CCCC(F)(F)F)C(=O)Nc1ccc(OC(F)(F)F)cc1)C2)C(=O)O` (configuration not stated), the EC50 [1] was 707 nM.
`CCCCCCCN(C(=O)Nc1ccc(N(C)C)cc1)C1Cc2ccc(SC(C)(C)C(=O)O)cc2C1` (configuration not stated) showed an EC50 [1] of 252 nM.
Work on `CCCCCN(C(=O)Nc1ccc(SC(F)(F)F)cc1)C1Cc2ccc(SC(C)(C)C(=O)O)cc2C1` (configuration not stated) yielded a bioavailability [2] of 59%, a half-life at 5 µM [3] of 1.27 h and a half-life [4] of 4.05 h. It also gave a clearance [5] of 0.55 mL/min/kg, a Cmax [6] of 8020 ng/mL and an EC50 [1] of 46 nM. The AUC [7] was 54700 ng·h/mL.
In the case of `CCCCCCCN(C(=O)Nc1ccc(C(F)(F)F)cc1)C1Cc2ccc(SC(C)(C)C(=O)O)cc2C1` (configuration not stated), the EC50 [1] is reported as 1270 nM.
In the case of `CCCCN(C(=O)Nc1ccc(N(C)C)cc1)C1Cc2ccc(SC(C)(C)C(=O)O)cc2C1` (configuration not stated), the EC50 [1] is reported as 561 nM.
With `CCCCCCCN(C(=O)Nc1ccc(F)cc1F)C1Cc2ccc(SC(C)(C)C(=O)O)cc2C1` (configuration not stated) the EC50 [1] was > 10000 nM.
In the case of `CC(C)CCN(C(=O)Nc1ccc(OC(F)(F)F)cc1)C1Cc2ccc(SC(C)(C)C(=O)O)cc2C1` (configuration not stated), the EC50 [1] is reported as 386 nM.
In the case of `CCCCCCCN(C(=O)Nc1ccccc1F)C1Cc2ccc(SC(C)(C)C(=O)O)cc2C1` (configuration not stated), the EC50 [1] is reported as > 10000 nM.
In the case of `CCN(C(=O)Nc1ccc(OC(F)(F)F)cc1Br)C1Cc2ccc(SC(C)(C)C(=O)O)cc2C1` (configuration not stated), the EC50 [1] is reported as > 1000 nM.
For `CCCCCCCN(C(=O)Nc1ccccc1)C1Cc2ccc(SC(C)(C)C(=O)O)cc2C1` (configuration not stated), the EC50 [1] was > 10000 nM.
For `CCCCCCCN(C(=O)Nc1ccc(SC)cc1)C1Cc2ccc(SC(C)(C)C(=O)O)cc2C1` (configuration not stated), the EC50 [1] was 419 nM.
`CCN(C(=O)Nc1ccc(C(C)C)cc1)C1Cc2ccc(SC(C)(C)C(=O)O)cc2C1` (configuration not stated) gave a bioavailability [2] of 34%, a half-life at 5 µM [3] of 0.2 h and a half-life [4] of 2.92 h. It also gave a clearance [5] of 0.81 mL/min/kg, a Cmax [6] of 32400 ng/mL and an EC50 [1] of 32 nM. It also gave an AUC [7] of 37100 ng·h/mL.
In the case of `CCCCCCCN(C(=O)Nc1ccc(OC(F)(F)F)cc1)[C@H]1Cc2ccc(SC(C)(C)C(=O)O)cc2C1`, the EC50 [1] is reported as > 13000 nM.
Work on `CCCCCCCN(C(=O)Nc1ccc(SC(F)(F)F)cc1)C1Cc2ccc(SC(C)(C)C(=O)O)cc2C1` (configuration not stated) yielded an EC50 [1] of 210 nM.
Work on `CCN(C(=O)Nc1ccc(OC(F)(F)F)cc1)[C@H]1Cc2ccc(SC(C)(C)C(=O)O)cc2C1` yielded an EC50 [1] of 165 nM.
Compound `CCCCCCCN(C(=O)Nc1ccc(OC(F)(F)F)cc1)[C@@H]1Cc2ccc(SC(C)(C)C(=O)O)cc2C1` has an EC50 [1] of 169 nM.
Compound `CCN(C(=O)Nc1ccc(N(C)C)cc1)C1Cc2ccc(SC(C)(C)C(=O)O)cc2C1` (configuration not stated) has a bioavailability [2] of 58%, a half-life at 5 µM [3] of 1.33 h and a half-life [4] of 4.46 h. It also gave a clearance [5] of 0.11 mL/min/kg, a Cmax [6] of 72300 ng/mL and an EC50 [1] of 117 nM. The AUC [7] was 273000 ng·h/mL.
For `CCCCCN(C(=O)Nc1ccc(C(C)C)cc1)C1Cc2ccc(SC(C)(C)C(=O)O)cc2C1` (configuration not stated), the EC50 [1] was 159 nM.
For `CCN(C(=O)Nc1ccc(SC(F)(F)F)cc1)C1Cc2ccc(SC(C)(C)C(=O)O)cc2C1` (configuration not stated), the bioavailability [2] was 100%, the half-life at 5 µM [3] was 1.67 h and the half-life [4] was 3.84 h. For the same compound, the clearance [5] was 0.3 mL/min/kg, the Cmax [6] was 5670 ng/mL and the EC50 [1] was 23 nM. For the same compound, the AUC [7] was 101000 ng·h/mL.
Compound `CCCCCCCN(C(=O)Nc1cccc(F)c1)C1Cc2ccc(SC(C)(C)C(=O)O)cc2C1` (configuration not stated) has an EC50 [1] of 2670 nM.
`CC(C)(Sc1ccc2c(c1)C[C@H](NC(=O)Nc1ccc(OC(F)(F)F)cc1)C2)C(=O)O` showed an EC50 [1] of 146 nM.
In the case of `CCN(C(=O)N(C)c1ccc(OC(F)(F)F)cc1)C1Cc2ccc(SC(C)(C)C(=O)O)cc2C1` (configuration not stated), the EC50 [1] is reported as > 1000 nM.
With `COCCN(C(=O)Nc1ccc(OC(F)(F)F)cc1)C1Cc2ccc(SC(C)(C)C(=O)O)cc2C1` (configuration not stated) the EC50 [1] was 425 nM.
In the case of `CCCCCN(C(=O)NC1Cc2ccc(SC(C)(C)C(=O)O)cc2C1)c1ccc(OC(F)(F)F)cc1` (configuration not stated), the EC50 [1] is reported as > 5000 nM.
`CCCCCN(C(=O)Nc1ccc(OC(F)(F)F)cc1)C1Cc2ccc(SC(C)(C)C(=O)O)cc2C1` (configuration not stated) gave a bioavailability [2] of 24%, a half-life at 5 µM [3] of 1.67 h and a half-life [4] of 7.19 h. The clearance [5] was 0.25 mL/min/kg, the Cmax [6] was 16600 ng/mL and the EC50 [1] was 105 nM. It also gave an AUC [7] of 121000 ng·h/mL.
For `CC(C)(Sc1ccc2c(c1)C[C@@H](NC(=O)Nc1ccc(OC(F)(F)F)cc1)C2)C(=O)O`, the EC50 [1] was 1110 nM.
For `CCCCCCCN(C(=O)Nc1cccc(C(F)(F)F)c1)C1Cc2ccc(SC(C)(C)C(=O)O)cc2C1` (configuration not stated), the EC50 [1] was 2730 nM.
`CCCCN(C(=O)Nc1ccc(OC(F)(F)F)cc1)C1Cc2ccc(SC(C)(C)C(=O)O)cc2C1` (configuration not stated) showed an EC50 [1] of 195 nM.
Compound `CCCCCN(C(=O)Nc1ccc(N(C)C)cc1)C1Cc2ccc(SC(C)(C)C(=O)O)cc2C1` (configuration not stated) has a bioavailability [2] of 62%, a half-life at 5 µM [3] of 1.57 h and a half-life [4] of 2.6 h. The clearance [5] was 0.47 mL/min/kg, the Cmax [6] was 20800 ng/mL and the EC50 [1] was 141 nM. It also gave an AUC [7] of 63600 ng·h/mL.
`CCCCCCCN(C(=O)Nc1ccccc1C)C1Cc2ccc(SC(C)(C)C(=O)O)cc2C1` (configuration not stated) gave an EC50 [1] of 7540 nM.
With `CCCCCCCN(C(=O)Nc1ccccc1OC(F)(F)F)C1Cc2ccc(SC(C)(C)C(=O)O)cc2C1` (configuration not stated) the EC50 [1] was 4990 nM.

From ChEMBL document CHEMBL1141364, “Design and synthesis of indane-ureido-thioisobutyric acids: A novel class of PPARalpha agonists” (Bioorg Med Chem Lett, 2007)
